Laboratory results as given in US6498164B1, “Barbituric acid derivative and preventive and therapeutic agent for bone and cartilage containing the same” (Aventis Pharma S.A., priority 1998, dated 2002).

System: osteocytes containing osteoclasts
Experiment: Pit formation assay (bone resorption inhibition on ivory slices)
Format: cell-based, ICR mice
Settings: compound 1 × 10^−5 M, ivory piece, 3 days culture; for inhibition at 10 µM: Mus musculus, Osteoclast, 72 h, 0% = no compound with rPTH 1×10^−8 M, 100% = no resorption cavity, read-out: Inhibiting rate; for Number of resorption cavity (mean ± SD): rPTH 1×10^−8 M
Experimental: ICR mice 11-12 days old (Charles River) were subjected to euthanasia through ether anesthesia, and disinfected by dipping in 70% ethanol immediately. Subsequently, a femur and a shank of a mouse was removed, chopped in an -MEM culture medium (Flow Labs Corp.) containing 5% FBS (Irving Scientific Corp.), 100 U/mL penicillin, and 100 µg/mL streptomycin. Supernatant obtained by pipetting was collected, washed with culture medium solution, suspended in a solution containing 5% FBS and -MEM culture medium to yield osteocytes containing osteoclasts. Supernatant of osteocyte suspending solution was taken 3 minutes after standing still to pass through meshes (Cell Strainer, 70 m, Falcon Corp.). The filtrate was adjusted to the concentration of 1 107 cells/mL to use for pit formation assay.
(2) Test by the pit formation assay
An ivory piece was cut into slices in 150 m thickness by using a precision, low speed cutter (Buehler Corp.) and punched to make a cylinderial holes in 6 mm diameter. The ivory piece was dipped in 70% ethanol, treated by sonication for 5 minutes twice, and washed with sterilized PBS three times and with culture medium twice. The ivory piece was put in pits of a 96-pit culture plate (Falcon Corp.), 100 μl of culture medium, that contains a chemical compound of the present invention adjusted to a concentration of 2×10^−5 M, was poured into each pit, and 100 μL of culture medium, that contains 1×10^7 osteocytes/mL previously prepared, into each pit (the final concentration of the compound was 1×10^−5 M), and finally cultivation was carried out in an incubator under 37° C. and 10% CO2 for 3 days. Then cells on an ivory piece were removed in 2 M sodium hydroxide solution, washed with water and methanol to stain resorption cavity with Coomassie Brilliant Blue and count numbers of absorbed cavities under a microscope. The inhibition rate of bone resorption was calculated on the basis that resorption cavity was assumed 0% in the case of no addition of the compound under the presence of rPTH (1×10^−8 M) in the solution and the case of no resorption cavity was assumed 100%. A good result was yielded in the same experiment with variation of resorption cavity numbers among experimental groups due to a difference among proportions of various cell in the solution, in which osteocytes were suspended, and also among the lot numbers of used animals.

Structure (SMILES) | inhibition at 10 µM [%] | Number of resorption cavity (mean ± SD)
CC(C)CC(=O)C1C(=O)N(Cc2ccccc2)C(=O)N(Cc2ccccc2)C1=O [Compound No. 1, 1,3-Dibenzyl-5-(3-methyl-1-oxobutyl)barbituric Acid] | 99.2 | 1.0 ± 0.5
O=C(Cc1ccccc1)C1C(=O)N(Cc2ccccc2)C(=O)N(Cc2ccccc2)C1=O [Compound No. 2, 1,3-Dibenzyl-5-(phenylacetyl)barbituric Acid] | 99 | 2.2 ± 0.6
O=C(Cc1cccs1)C1C(=O)N(Cc2ccccc2)C(=O)N(Cc2ccccc2)C1=O [Compound No. 3, 1,3-Dibenzyl-5-(2-thienylacetyl)barbituric Acid] | 96.7 | 7.0 ± 1.7
CC(C)CCN1C(=O)C(C(=O)CC(C)C)C(=O)N(CCC(C)C)C1=O [Compound No. 4, 1,3-Bis(3-methylbutyl)-5-(3-methyl-1-oxobutyl)barbituric Acid] | 90.6 | 21.1 ± 4.3
